Measured values taken from patent publication US20110003858A1, “MULTIMERIC HETEROCYCLIC COMPOUNDS USEFUL AS NEUTROPHIL ELASTASE INHIBITORS” (priority 2006, published 2011).

Molecular target: T1, Human Neutrophil Elastase (HNE) (Homo sapiens, UniProt P08246)
T1 construct: Human Neutrophil Elastase (HNE) purified from serum; purchased Calbiochem 324681; host or cells: natural enzyme purified from human serum (so in the source)
T1 sequence (P08246 30-247 limits assumed): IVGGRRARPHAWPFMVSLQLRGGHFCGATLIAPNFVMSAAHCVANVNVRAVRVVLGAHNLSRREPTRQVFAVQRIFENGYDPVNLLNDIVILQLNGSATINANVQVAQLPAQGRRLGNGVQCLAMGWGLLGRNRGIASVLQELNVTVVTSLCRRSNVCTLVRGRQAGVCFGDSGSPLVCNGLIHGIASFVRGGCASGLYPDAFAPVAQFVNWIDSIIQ
Assay: Human Neutrophil Elastase Quenched-FRET Assay
Format: biochemical
Conditions: HNE 1.7 nM, substrate MeOSuc-AAPV-AMC 100 μM, pH 7.5; read-out: Inhibition of HNE IC50
Experimental: Human Neutrophil Elastase Quenched-FRET Assay
The assay uses Human Neutrophil Elastase (HNE) purified from serum (Calbiochem art. 324681; Ref. Baugh, R. J. et al., 1976, Biochemistry. 15, 836-841). HNE was stored in 50 mM sodium acetate (NaOAc), 200 mM sodium chloride (NaCl), pH 5.5 with added 30% glycerol at −20° C. The protease substrate used was Elastase Substrate V Fluorogenic, MeOSuc-AAPV-AMC (Calbiochem art. 324740; Ref. Castillo, M. J. et al., 1979, Anal. Biochem. 99, 53-64). The substrate was stored in dimethyl sulphoxide (DMSO) at −20° C. The assay additions were as follows: Test compounds and controls were added to black 96-well flat-bottom plates (Greiner 655076), 1 μL in 100% DMSO, followed by 30 μL HNE in assay buffer with 0.01% Triton (trade mark) X-100 detergent. The assay buffer constitution was: 100 mM Tris(hydroxymethyl)aminomethane (TRIS) (pH 7.5) and 500 mM NaCl. The enzyme and the compounds were incubated at room temperature for 15 minutes. Then 30 μl substrate in assay buffer was added. The assay was incubated for 30 minutes at room temperature. The concentrations of HNE enzyme and substrate during the incubation were 1.7 nM and 100 μM, respectively. […] Fluorescence was measured on a Wallac 1420 Victor 2 instrument at settings: Excitation 380 nm, Emission 460 nm. IC50 values were determined using Xlfit curve fitting using model 205.

IC50 [pM]	SMILES
260	Cc1c(-c2ccnn2-c2ccc(C#N)cc2)cc(C(=O)NCC(O)CNC(=O)c2cc(-c3ccnn3-c3ccc(C#N)cc3)c(C)n(-c3cccc(C(F)(F)F)c3)c2=O)c(=O)n1-c1cccc(C(F)(F)F)c1 [Example 2, N,N′-(2-Hydroxypropane-1,3-diyl)bis(5-(1-(4-cyanophenyl)-1H-pyrazol-5-yl)-6-methyl-2-oxo-1-(3-(trifluoromethyl)phenyl)-1,2-dihydropyridine-3-carboxamide)]
610	Cc1c([S+]([O-])c2ccc(C#N)cc2)cc(C(=O)NCCOCCOCCNC(=O)c2cc([S+]([O-])c3ccc(C#N)cc3)c(C)n(-c3cccc(C(F)(F)F)c3)c2=O)c(=O)n1-c1cccc(C(F)(F)F)c1 (centres unmarked) [Example 1]
